Some test systems named below: BT-549; EKVX; HOP-62; IGROV-1; K562; KM12; M14; MCF7; MDA-MB-231; MDA-MB-435; MOLT-4; Malme-3M; OVCAR-5; SF-295; SK-MEL-28; SK-MEL-2; SK-OV-3; SN12C; T47D; U-251.
Experiment in all cases: inhibition of tumour cell growth, NCI panel, 48 h

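All cell lines were grown in 96-well plates and treated with compound for 48 hours. GI50: concentration for 50% inhibition of growth.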 Activity calls are given as the source filed them. Rule as the data show it: active = GI50 up to about 1.1 µM and inactive = higher. A value given as a limit tells only on which side of the number the result lay.

In the case of `CC1(C)C[C@H]2[C@H](O)C(CO)=C3C(=O)[C@@H](O)[C@]3(C)[C@H]2C1`, the GI50 in the assay on BT-549 is 45.7 µM (inactive); with EKVX, > 100 µM (inactive); with HOP-62, > 100 µM (inactive); with IGROV-1, > 100 µM (inactive); in the assay on K562 it was 36.6 µM (inactive); in the assay on KM12 it was > 100 µM (inactive). Also, the GI50 was > 100 µM (inactive) in the assay on M14; 44.8 µM (inactive) in the assay with MCF7; > 100 µM (inactive) in the assay on MDA-MB-231; 50.5 µM (inactive) in the assay on MDA-MB-435; 17.4 µM (inactive) with MOLT-4; > 100 µM (inactive) in the assay on Malme-3M. Further, the GI50 in the assay on OVCAR-5, in the assay with SF-295, in the assay on SK-MEL-28, in the assay with SK-MEL-2, in the assay on SK-OV-3 and with SN12C was > 100 µM (inactive) each time. Moreover, the GI50 is 74.6 µM (inactive) in the assay on T47D and > 100 µM (inactive) with U-251.

As for `CCOc1ccc(Nc2nc(N)nc(N)c2N=O)cc1`, the GI50 is 45.6 µM (inactive) in the assay on BT-549; 48.4 µM (inactive) in the assay on EKVX; 50.1 µM (inactive) with HOP-62; 7.69 µM (inactive) in the assay on IGROV-1; 53.5 µM (inactive) with K562; > 100 µM (inactive) in the assay on KM12. For the same compound, the GI50 in the assay with M14 was > 100 µM (inactive); in the assay on MCF7 it was 38.4 µM (inactive); in the assay with MDA-MB-231 it was 40 µM (inactive); in the assay with MDA-MB-435, 52.4 µM (inactive); with MOLT-4, 17.6 µM (inactive); in the assay on Malme-3M, 49 µM (inactive). Moreover, the GI50 with OVCAR-5 is > 100 µM (inactive); in the assay on SF-295, > 100 µM (inactive); in the assay with SK-MEL-28 it was 66.5 µM (inactive); with SK-MEL-2 it was 65.2 µM (inactive); in the assay on SK-OV-3, > 100 µM (inactive); in the assay with SN12C, 56.6 µM (inactive). In addition, the GI50 in the assay on T47D was 19.2 µM (inactive); in the assay with U-251 it was > 100 µM (inactive).

Turning to `Cc1nn(C(=O)c2ccncc2)c2c1C(c1ccccc1)SC(=N)N2` (stereo not given), the GI50 in the assay on BT-549, in the assay with EKVX, with HOP-62, in the assay on IGROV-1, with K562 and in the assay with KM12 was > 10 µM (inactive) in each case. The GI50 in the assay on M14, with MCF7, in the assay with MDA-MB-231, in the assay with MDA-MB-435, in the assay on MOLT-4 and in the assay with Malme-3M was > 10 µM (inactive) in each case. Further, the GI50 in the assay on OVCAR-5, in the assay on SF-295, in the assay with SK-MEL-28, in the assay with SK-MEL-2, in the assay with SK-OV-3 and with SN12C was > 10 µM (inactive) in each case. Moreover, the GI50 in the assay with T47D and in the assay with U-251 was > 10 µM (inactive) each time.

Take `CO/N=[N+](\[O-])NC(C)C`: the GI50 in the assay on BT-549, in the assay with EKVX, in the assay on HOP-62, with IGROV-1, with K562 and in the assay with KM12 was > 100 µM (inactive) throughout. Moreover, the GI50 in the assay with M14, with MCF7, with MDA-MB-231, with MDA-MB-435, with MOLT-4 and with Malme-3M was > 100 µM (inactive) throughout. Moreover, the GI50 in the assay with OVCAR-5, in the assay on SF-295, with SK-MEL-28, in the assay with SK-MEL-2, in the assay with SK-OV-3 and in the assay on SN12C was > 100 µM (inactive) in each case. Also, the GI50 in the assay with T47D and with U-251 was > 100 µM (inactive) throughout.

On to `CCC(=O)N1C(=O)C(CC)(CC)C(=O)N1C(=O)CC`, for which the GI50 in the assay on BT-549, in the assay with EKVX, in the assay with HOP-62, with IGROV-1, with K562 and in the assay on KM12 was > 100 µM (inactive) in each case. Moreover, the GI50 in the assay with M14, in the assay with MCF7, in the assay with MDA-MB-231, in the assay on MDA-MB-435, in the assay with MOLT-4 and with Malme-3M was > 100 µM (inactive) in each case. Also, the GI50 in the assay with OVCAR-5, in the assay with SF-295, with SK-MEL-28, in the assay with SK-MEL-2, in the assay on SK-OV-3 and in the assay with SN12C was > 100 µM (inactive) in each case. Besides, the GI50 with T47D and with U-251 was > 100 µM (inactive) throughout.

`COCCn1cnc2c(Cl)nc(Nc3ccccc3)nc21`: the GI50 is 27.4 µM (inactive) in the assay with BT-549; 21.3 µM (inactive) with EKVX; 59.7 µM (inactive) in the assay on HOP-62; 21.2 µM (inactive) in the assay with IGROV-1; 25.9 µM (inactive) in the assay with K562; > 100 µM (inactive) with KM12. Moreover, the GI50 in the assay with M14 is 26.3 µM (inactive); in the assay with MCF7, 36.4 µM (inactive); in the assay with MDA-MB-231, 27.7 µM (inactive); with MDA-MB-435, 18.1 µM (inactive); in the assay on MOLT-4 it was 23.3 µM (inactive); in the assay with Malme-3M it was > 10 µM (inactive). Moreover, the GI50 is > 100 µM (inactive) with OVCAR-5; > 100 µM (inactive) with SF-295; 36 µM (inactive) in the assay on SK-MEL-28; 17.7 µM (inactive) in the assay on SK-MEL-2; 37.2 µM (inactive) in the assay with SK-OV-3; 26.4 µM (inactive) in the assay on SN12C. In addition, the GI50 in the assay with T47D was 29.8 µM (inactive); in the assay with U-251, 32.7 µM (inactive).

For the compound `CN1CCN(CCCCN2c3ccccc3Sc3ccc(C(=O)c4ccccc4)cc32)CC1`, the GI50 is 1.65 µM (inactive) in the assay on BT-549; 2.36 µM (inactive) in the assay with EKVX; 1.6 µM (inactive) in the assay with HOP-62; 1.72 µM (inactive) with IGROV-1; 1.48 µM (inactive) in the assay with K562; 1.49 µM (inactive) with KM12. For the same compound, the GI50 was 1.82 µM (inactive) with M14; 1.91 µM (inactive) in the assay on MCF7; 1.9 µM (inactive) in the assay with MDA-MB-231; 1.73 µM (inactive) with MDA-MB-435; 1.71 µM (inactive) in the assay on MOLT-4; 2.34 µM (inactive) in the assay with Malme-3M. For the same compound, the GI50 is 2.84 µM (inactive) in the assay with OVCAR-5; 1.8 µM (inactive) in the assay on SF-295; 1.49 µM (inactive) with SK-MEL-28; 1.77 µM (inactive) with SK-MEL-2; 1.57 µM (inactive) in the assay with SK-OV-3; 1.71 µM (inactive) in the assay with SN12C. Besides, the GI50 with T47D is 5.65 µM (inactive); in the assay on U-251, 1.69 µM (inactive).

Take `CC(=O)O[C@H]1C[C@@H](O[C@H]2[C@@H](O)C[C@H](O[C@H]3[C@@H](O)C[C@H](O[C@H]4CC[C@@]5(C)[C@H](CC[C@@H]6[C@@H]5C[C@@H](O)[C@]5(C)[C@@H](C7=CC(=O)OC7)CC[C@]65O)C4)O[C@@H]3C)O[C@@H]2C)O[C@H](C)[C@H]1O.CC(=O)O[C@H]1[C@@H](O)C[C@@H](O[C@H]2[C@@H](O)C[C@H](O[C@H]3[C@@H](O)C[C@H](O[C@H]4CC[C@@]5(C)[C@H](CC[C@@H]6[C@@H]5C[C@@H](O)[C@]5(C)[C@@H](C7=CC(=O)OC7)CC[C@]65O)C4)O[C@@H]3C)O[C@@H]2C)O[C@@H]1C`: the GI50 with BT-549 was 0.0425 µM (active); in the assay on EKVX it was 0.0175 µM (active); in the assay with HOP-62, 0.0336 µM (active); in the assay on IGROV-1 it was 0.0354 µM (active); in the assay on K562, 0.0291 µM (active); in the assay on KM12, 0.0324 µM (active). In addition, the GI50 with M14 is 0.0637 µM (active); with MCF7 it was 0.0415 µM (active); in the assay with MDA-MB-231, 0.162 µM (active); in the assay with MDA-MB-435, 0.0443 µM (active); in the assay on MOLT-4 it was 0.0167 µM (active); in the assay with Malme-3M it was 0.0236 µM (active). In addition, the GI50 is 0.033 µM (active) in the assay on OVCAR-5; 0.0299 µM (active) with SF-295; 0.129 µM (active) with SK-MEL-28; 0.0679 µM (active) in the assay with SK-MEL-2; 0.0385 µM (active) in the assay on SK-OV-3; 0.0423 µM (active) in the assay on SN12C. Further, the figures for the GI50 in the assay on T47D and with U-251 were 0.0455 µM (active) and 0.0302 µM (active), respectively.

Take `O=C(O)c1cc(=O)c2c(OCC(O)COc3cccc4oc(C(=O)O)cc(=O)c34)cccc2o1`: the GI50 in the assay with BT-549 is > 100 µM (inactive); in the assay with EKVX, > 96.6 µM (inactive); with HOP-62, > 91.2 µM (inactive); with IGROV-1, > 60.5 µM (inactive); in the assay on K562 it was > 90.2 µM (inactive); with KM12, > 85.9 µM (inactive). The GI50 in the assay on M14 is > 88.1 µM (inactive); in the assay with MCF7, > 85.1 µM (inactive); in the assay with MDA-MB-231 it was > 81.1 µM (inactive); with MDA-MB-435, > 67.5 µM (inactive); with MOLT-4 it was > 87.7 µM (inactive); in the assay with Malme-3M, > 75.3 µM (inactive). The GI50 was > 84.3 µM (inactive) in the assay with OVCAR-5; > 95.5 µM (inactive) in the assay with SF-295; > 100 µM (inactive) in the assay on SK-MEL-28; > 56.4 µM (inactive) with SK-MEL-2; > 72.9 µM (inactive) in the assay with SK-OV-3; > 100 µM (inactive) in the assay on SN12C. In addition, the GI50 in the assay with T47D was > 100 µM (inactive); in the assay with U-251, > 75.2 µM (inactive).
